Measurements taken from US11325883B2, “Functionalized N,N-dialkylamino phenyl ethers and their method of use” (Temple University—Of The Commonwealth System of Higher …, priority 2017, dated 2022).

Columns and labels:
[1] = system: Gaucher patient fibroblasts (L444P/L444P, GM08760); assay: GPN induced calcium release phenotypic assay on Gaucher patient cells; type: cell-based, human; settings: for Maximal % Change in GPN Response / EC50: Gaucher patient cells, 72 hours compound treatment; for Maximal % Change in GPN Response: GPN response with drug/without drug x100; for EC50: Homo sapiens, Fibroblast, 12-point curve in triplicate
From the text: Phenotypic Assay: A phenotypic cellular assay utilizing lysosomal storage disorder (LSD) patient derived cells was developed to identify compounds with disease modifying activity to reverse or attenuate the disease phenotype to non-disease levels. […] This functional readout of the LSD diseased state was developed into a high throughput screening assay.
Disruption of lysosomal calcium homeostasis has been linked to the pathophysiology of lysosomal storage disorders including Gaucher disease (Lloyd-Evans, E, Morgan A J, He X, Smith D A, Elliot-Smith E, Sillence D J, Churchill G C, Schuchman E H, Galione A, Platt F M. (2008) Niemann-Pick disease type C1 is a sphingosine storage disease that causes deregulation of lysosomal calcium. Nat Med. 14(11):1247-55. Lloyd-Evans E, Platt F M. (2011) Lysosomal Ca(^2+) homeostasis: role in pathogenesis of lysosomal storage diseases. Cell Calcium. 50(2):200-205. Morgan, A J, Platt, F M, Lloyd-Evans, E and Galione, A (2011) Molecular mechanism of endolysosomal Ca^2+ signaling in health and disease. Biochem. J. 439:349-374.). Calcium release from acidic lysosomal stores can be induced by addition of Gly-Phe-β-napthylamide (GPN), a substrate of cathepsin C, which upon hydrolysis, produces osmotic lysis of lysosomes and release of calcium specifically from lysosomal acidic stores into the cytosol. The increase of intracellular calcium released from lysosomes can be detected with cell membrane permeable calcium sensitive indicators.
(§1) Cells (800 cells/well) were plated with a MultiFlo dispenser (BioTek) and cultured for 24 h at 37° C., 5% CO2. The screening compounds were then added to cells under sterile conditions and continued in culture for 72 hours. Cells were loaded with Screen Quest™ Fluo-8 No Wash Calcium mix (ATT Bio) and analyzed for changes in response to GPN. The data from each well were normalized with basal fluorescence by dividing the maximum fluorescence over the entire real time reading by the initial basal fluorescence. […] EC50 and Hill slope values are determined using a four-parameter dose-response (variable slope) equation in GraphPad Prism. The % change in GPN response is calculated as the ratio of GPN response measured in the presence of drug/GPN response measured in the absence of drug×100. […] The maximal % change in GPN response is calculated as the ratio of GPN response measured in the presence of drug/GPN response measured in the absence of drug×100.
Gaucher patient fibroblasts (Coreill Institute, GM08760) were cultured in EMEM with 15% FBS, 1% Pen/Strep at 37° C./5% CO2. Wild-type patient fibroblasts (Coriell Institute, GM 005659) were used as a control cell line. Cells are plated with a MultiFlo dispenser (800 cells/well in 30 μL of complete growth media) in black/clear bottom 384-well plates and cultured for 24 hours at 37° C., 5% CO2. Compounds of the disclosure are then added to the cells (12 point dose response curve, 150 nM to 30 uM final compound concentration using a 5.0 μL of a 7× stock solution (1.05 μM to 210 μM)) under sterile conditions and continued in culture for 72 hours at 37° C., 5% CO2. For intracellular calcium measurements, media is removed and 20 μL of calcium dye mixture (Screen Quest™ Fluo-8 No Wash Calcium mix, ATT Bioquest) is added to each well, incubated for 30 minutes at 37° C., followed by 22° C. for 30 minutes.

[2] = system: Wild-type patient fibroblasts (GM 005659); settings: wild type cells
Experimental: as §1
Gaucher patient fibroblasts (Coreill Institute, GM08760) were cultured in EMEM with 15% FBS, 1% Pen/Strep at 37° C./5% CO2. Wild-type patient fibroblasts (Coriell Institute, GM 005659) were used as a control cell line. […] The data from each well were normalized with basal fluorescence by dividing the maximum fluorescence over the entire real time reading by the initial basal fluorescence.

SMILES	Maximal % Change in GPN Response [1] [%]	EC50 [1] [nM]	increase in GPN-induced calcium response [2]	increase in calcium response ([1]; compared with 0.1% DMSO treated Gaucher patient cells) [%]
CN(C)CCOc1ccc(C(=O)Cc2ccccc2-c2ccc(F)cc2)cc1 [Example 1, 1-(4-(2-(Dimethylamino)ethoxy)phenyl)-2-(4′-fluoro-[1,1′-biphenyl]-2-yl)ethanone]	250	3600		
CN(C)CCOc1ccc(C(=O)Cc2ccccc2-c2ccccc2Cl)cc1 [Example 2, 2-(2′-Chloro-[1,1′-biphenyl]-2-yl)-1-(4-(2-(dimethylamino)ethoxy)phenyl)ethanone]	160	1800		
CC(C)CC(C(=O)c1ccc(OCCN(C)C)cc1)c1ccccc1-c1ccc(F)cc1 (centres unmarked) [Example 3, 1-(4-(2-(dimethylamino)ethoxy)phenyl)-2-(4′-fluoro-[1,1′-biphenyl]-2-yl)-4-methylpentan-1-one]	400	185		
CN(C)CCOc1ccc(C(=O)C(CC2CC2)c2ccccc2-c2ccc(F)cc2)cc1 (centres unmarked) [Example 4, 3-cyclopropyl-1-(4-(2-(dimethylamino)ethoxy)phenyl)-2-(4′-fluoro-[1,1′-biphenyl]-2-yl)propan-1-one]	360	475		
CCC(C(=O)c1ccc(OCCN(C)C)cc1)c1ccccc1-c1ccc(F)cc1 (centres unmarked) [Example 5, 1-(4-(2-(dimethylamino)ethoxy)phenyl)-2-(4′-fluoro-[1,1′-biphenyl]-2-yl)butan-1-one]	630	266		
CCCC(C(=O)c1ccc(OCCN(C)C)cc1)c1ccccc1-c1ccc(F)cc1 (centres unmarked) [Example 6, 1-(4-(2-(dimethylamino)ethoxy)phenyl)-2-(4′-fluoro-[1,1′-biphenyl]-2-yl)pentan-1-one]	410	424		
CCC(C(=O)c1ccc(OCCNC)cc1)c1ccccc1-c1ccc(F)cc1 (centres unmarked) [Example 7, 2-(4′-fluoro-[1,1′-biphenyl]-2-yl)-1-(4-(2-(methylamino)ethoxy)phenyl)butan-1-one]	515	425		
CCCC(C(=O)c1ccc(OCCNC)cc1)c1ccccc1-c1ccc(F)cc1 (centres unmarked) [Example 8, 2-(4′-fluoro-[1,1′-biphenyl]-2-yl)-1-(4-(2-(methylamino)ethoxy)phenyl)pentan-1-one]	330	356		
CNCCOc1ccc(C(=O)C(CC(C)C)c2ccccc2-c2ccc(F)cc2)cc1 (centres unmarked) [Example 9, 2-(4′-fluoro-[1,1′-biphenyl]-2-yl)-4-methyl-1-(4-(2-(methylamino)-ethoxy)phenyl)pentan-1-one]	617	236		
CC/C(=C(\c1ccccc1)c1ccc(OCCN(C)C)cc1)c1ccccc1 [Tamoxifen, reference compound]			30+/−20%	200±50
